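The compound was tested at five concentrations on cells cultured in 96-well plates, with a 48-hour exposure period. TGI: concentration producing complete growth inhibition.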
Columns and labels:
Assay in all cases: NCI tumour cell line growth inhibition, 48 h
[1] = tested on: SW-620 colon
[2] = tested on: HL-60(TB) leukemia
[3] = tested on: NCI-H226 lung
[4] = tested on: M19-MEL melanoma
[5] = tested on: IGROV1 ovarian
[6] = tested on: U251 CNS
[7] = tested on: CAKI-1 renal
[8] = tested on: ACHN renal
[9] = tested on: RXF 393 renal
[10] = tested on: NCI-H460 lung
[11] = tested on: OVCAR-3 ovarian
[12] = tested on: SF-295 CNS
[13] = tested on: DLD-1 colon
[14] = tested on: OVCAR-4 ovarian
[15] = tested on: NCI-H23 lung
[16] = tested on: SK-OV-3 ovarian
[17] = tested on: UO-31 renal
[18] = tested on: MALME-3M melanoma
[19] = tested on: HT29 colon
[20] = tested on: KM12 colon
[21] = tested on: A549 NSCLC
[22] = tested on: SNB-19 CNS
[23] = tested on: SK-MEL-28 melanoma
[24] = tested on: TK-10 renal
[25] = tested on: SN12C renal
[26] = tested on: KM20L2 colon
[27] = tested on: SF-539 CNS
[28] = tested on: NCI-H522 lung
[29] = tested on: SF-268 CNS
[30] = tested on: SNB-78 CNS
[31] = tested on: UACC-257 melanoma
[32] = tested on: LXFL 529 NSCLC
[33] = tested on: EKVX NSCLC
[34] = tested on: SNB-75 CNS
[35] = tested on: UACC-62 melanoma
[36] = tested on: K-562 leukemia
[37] = tested on: COLO 205 colon
[38] = tested on: HOP-18 NSCLC
[39] = tested on: HCC-2998 colon
[40] = tested on: M14 melanoma
[41] = tested on: RPMI-8226 leukemia
[42] = tested on: HOP-62 NSCLC
[43] = tested on: DMS 114 small cell lung
[44] = tested on: HCT-15 colon
[45] = tested on: OVCAR-8 ovarian
[46] = tested on: 786-0 renal
[47] = tested on: SK-MEL-5 melanoma
[48] = tested on: DMS 273 small cell lung
[49] = tested on: CCRF-CEM leukemia
[50] = tested on: XF 498 CNS
[51] = tested on: OVCAR-5 ovarian
[52] = tested on: HCT-116 colon
[53] = tested on: SK-MEL-2 melanoma
[54] = tested on: MOLT-4 leukemia
[55] = tested on: LOX IMVI melanoma
[56] = tested on: PC-3 prostate
[57] = tested on: NCI/ADR-RES ovarian
[58] = tested on: HOP-92 NSCLC
[59] = tested on: T-47D breast
[60] = tested on: MCF7 breast
[61] = tested on: MDA-MB-435
[62] = tested on: A498 renal
[63] = tested on: MDA-MB-231 breast
[64] = tested on: DU-145 prostate
[65] = tested on: SR leukemia
[66] = tested on: MDA-N
[67] = tested on: HS 578T breast
[68] = tested on: BT-549 breast

## COC(=O)/C(C#N)=C1\CCC(OC)N1 (configuration not stated)
[1]
  TGI: > 100 µM
[2]
  TGI: > 100 µM
[3]
  TGI: > 100 µM
[4]
  TGI: > 100 µM
[5]
  TGI: > 100 µM
[6]
  TGI: > 100 µM
[7]
  TGI: > 100 µM
[8]
  TGI: > 100 µM
[9]
  TGI: > 100 µM
[10]
  TGI: > 100 µM
[11]
  TGI: > 100 µM
[12]
  TGI: > 100 µM
[13]
  TGI: > 100 µM
[14]
  TGI: > 100 µM
[15]
  TGI: > 100 µM
[16]
  TGI: > 100 µM
[17]
  TGI: > 100 µM
[18]
  TGI: > 100 µM
[19]
  TGI: > 100 µM
[20]
  TGI: > 100 µM
[21]
  TGI: > 100 µM
[22]
  TGI: > 100 µM
[23]
  TGI: > 100 µM
[24]
  TGI: > 100 µM
[25]
  TGI: > 100 µM
[26]
  TGI: > 100 µM
[27]
  TGI: > 100 µM
[28]
  TGI: > 100 µM
[29]
  TGI: > 100 µM
[30]
  TGI: > 100 µM
[31]
  TGI: > 100 µM
[32]
  TGI: > 100 µM
[33]
  TGI: > 100 µM
[34]
  TGI: > 100 µM
[35]
  TGI: > 100 µM
[36]
  TGI: > 100 µM
[37]
  TGI: > 100 µM
[38]
  TGI: > 100 µM
[39]
  TGI: > 100 µM
[40]
  TGI: > 100 µM
[41]
  TGI: > 100 µM
[42]
  TGI: > 100 µM
[43]
  TGI: > 100 µM
[44]
  TGI: > 100 µM
[45]
  TGI: > 100 µM
[46]
  TGI: > 100 µM
[47]
  TGI: > 100 µM
[48]
  TGI: > 100 µM
[49]
  TGI: > 100 µM
[50]
  TGI: > 100 µM
[51]
  TGI: > 100 µM
[52]
  TGI: > 100 µM
[53]
  TGI: > 100 µM
[54]
  TGI: > 100 µM
[55]
  TGI: > 100 µM

## COC(=O)N/N=C(/CC1(O)C(=O)Nc2ccc([N+](=O)[O-])cc21)c1ccccc1 (configuration not stated)
[1]
  TGI: > 69.4 µM
[2]
  TGI: 58.8 µM
[3]
  TGI: 98.3 µM
[4]
  TGI: > 100 µM
[5]
  TGI: > 73.6 µM
[6]
  TGI: 76.9 µM
[56]
  TGI: > 100 µM
[57]
  TGI: 55.7 µM
[7]
  TGI: > 100 µM
[8]
  TGI: > 72.2 µM
[9]
  TGI: 51.4 µM
[10]
  TGI: > 100 µM
[11]
  TGI: > 74.6 µM
[12]
  TGI: 39.2 µM
[13]
  TGI: > 100 µM
[14]
  TGI: > 84.7 µM
[58]
  TGI: > 100 µM
[59]
  TGI: > 100 µM
[15]
  TGI: > 60.1 µM
[16]
  TGI: > 100 µM
[17]
  TGI: 91.6 µM
[60]
  TGI: 5.61 µM
[18]
  TGI: > 75.4 µM
[19]
  TGI: > 79.4 µM
[20]
  TGI: > 63.7 µM
[21]
  TGI: > 100 µM
[22]
  TGI: > 100 µM
[23]
  TGI: > 70.9 µM
[24]
  TGI: 57.6 µM
[25]
  TGI: > 100 µM
[26]
  TGI: > 100 µM
[27]
  TGI: > 100 µM
[28]
  TGI: > 75.9 µM
[29]
  TGI: > 100 µM
[30]
  TGI: 50.6 µM
[31]
  TGI: > 95.6 µM
[61]
  TGI: 57.3 µM
[62]
  TGI: 25.8 µM
[32]
  TGI: > 100 µM
[33]
  TGI: > 93.4 µM
[34]
  TGI: 54.9 µM
[35]
  TGI: > 54.7 µM
[63]
  TGI: 44 µM
[36]
  TGI: > 87.2 µM
[37]
  TGI: > 82.5 µM
[64]
  TGI: > 100 µM
[39]
  TGI: > 100 µM
[65]
  TGI: > 68.3 µM
[40]
  TGI: > 64.8 µM
[66]
  TGI: 94.4 µM
[41]
  TGI: 97.2 µM
[42]
  TGI: > 90.2 µM
[67]
  TGI: 73.3 µM
[43]
  TGI: > 100 µM
[44]
  TGI: > 70.6 µM
[45]
  TGI: > 68.5 µM
[46]
  TGI: > 54.4 µM
[68]
  TGI: 92.3 µM
[47]
  TGI: > 60.9 µM
[48]
  TGI: > 100 µM
[49]
  TGI: > 76.6 µM
[50]
  TGI: 46.5 µM
[51]
  TGI: > 100 µM
[52]
  TGI: > 58.6 µM
[53]
  TGI: > 72.9 µM
[54]
  TGI: > 66.7 µM
[55]
  TGI: 36.1 µM

Source: PubChem BioAssay (NCI)
